# Read-outs that look alike come from different tables or passages of the source.
# Assays:
# [1] = system: methicillin-susceptible S. aureus (MSSA); assay: Broth microdilution susceptibility (MIC), MSSA isolates; type: cell-based, Staphylococus aureus; settings: N=25 isolates
# Protocol: (§1) The MIC50 and MIC90 of εPL against methicillin-sensitive Staphylococus aureus) and MRSA were determined in these studies. (The “Minimum”, “Maximum”, and MIC50 and MIC90 in the Table are provided in units of μg/ml.) Other antimicrobial agents such as tobramycin, moxifloxacin, and PHMB (polyhexamethylene biguanid) were included for comparison. Broth microdilution tests were performed in accordance with the Clinical and Laboratory Standards Institute (CLSI) (M07-A9, Vol. 32 No. 2, January, 2012) for aerobic and facultative anaerobic strains. Cation-adjusted Mueller-Hinton broth was used for testing staphylococci species.
# [2] = system: methicillin-resistant S. aureus (MRSA); assay: Broth microdilution susceptibility (MIC), MRSA isolates; type: cell-based, Staphylococus aureus; settings: for MIC / MIC50 / MIC90 / Maximum (MIC) / Minimum (MIC): MRSA, N=25 isolates
# Protocol: as §1
# MRSA strain K-950 = assay: Time-kill study (bactericidal activity); type: cell-based, Staphylococus aureus; settings: for decrease of MRSA colony counts: 8 hours post-inoculation
# Protocol: The bactericidal activity of εPL against MRSA strain K-950 was evaluated. […] Test tubes containing 0.5 mL of εPL at 0.25 μg/mL, 1.0 μg/mL, 4.0 μg/mL or 16.0 μg/mL εPL in Mueller Hinton broth growth media and approximately 10^6 CFU/mL of K-950 were incubated at 37° C. After 1, 2, 4, 6, 8 and 24 hours of incubation, the test tubes were removed and colony forming units were calculated. To calculate CFU, 100 μL of the medium was removed from a tube and serially diluted (1:10 dilutions) in the medium. Aliquots of 100 μL of each dilution were plated, in duplicate, onto TSA agar plates containing 5% sheep's blood. The plates were incubated at 37° C. overnight and the colonies were counted the next day.
# [3] = Ocular toxicity study in rabbits; type: in vivo
# Protocol: Rabbits were divided into three treatment groups, each was treated with increasing concentrations of εPL (50, 150, and 500 μg/mL) in phosphate buffered saline (PBS) at pH 7.3. Specifically, rabbits from each group were dosed with a drop of εPL solution in the left eye of a rabbit eight times during a seven-hour period. The right eye was dosed with PBS. Macroscopic examinations were performed prior to the first dose, and 10 minutes following each dose. Slit lamp microscopic examinations were performed prior to the first dose and at termination. Ocular tissues were collected at termination and submitted for histological evaluation.
# During the dosing period, there were some sporadic occurrences of conjunctival discharge as observed by macroscopic examination. However, they were equally divided between εePL-treated and PBS-treated eyes.
# [4] = Staphylococcus aureus, cation-adjusted Mueller-Hinton broth, read-out: Minimum (MIC)
# [5] = Staphylococcus aureus, read-out: MIC50
# [6] = Staphylococcus aureus, read-out: MIC90
# [7] = Staphylococcus aureus, read-out: Maximum (MIC)
# [8] = cation-adjusted Mueller-Hinton broth
molecule,measurement,setting,value
"COc1c(N2C[C@@H]3CCCN[C@@H]3C2)c(F)cc2c(=O)c(C(=O)O)cn(C3CC3)c12 [Moxifloxacin, moxifloxacin]",MIC,[1]; [4],0.03 µg/mL
same,MIC50,[1]; [5],0.06 µg/mL
same,MIC90,[1]; [6],1 µg/mL
same,MIC,[1]; [7],1 µg/mL
same,MIC,[2]; [4],0.03 µg/mL
same,MIC50,[2]; [5],1 µg/mL
same,MIC90,[2]; [6],4 µg/mL
same,MIC,[2]; [7],8 µg/mL
"NC[C@H]1O[C@H](O[C@H]2[C@H](O)[C@@H](O[C@H]3O[C@H](CO)[C@@H](O)[C@H](N)[C@H]3O)[C@H](N)C[C@@H]2N)[C@H](N)C[C@@H]1O [Tobramycin, tobramycin]",MIC,[1]; [4],0.12 µg/mL
same,MIC50,[1]; [5],0.25 µg/mL
same,MIC90,[1]; [6],1 µg/mL
same,MIC,[1]; [7],1 µg/mL
same,MIC,[2]; [4],0.12 µg/mL
same,MIC50,[2]; [5],0.5 µg/mL
same,MIC90,[2]; [6],64 µg/mL
same,MIC,[2]; [7],64 µg/mL
polyhexamethylene biguanid [PHMB],MIC50,[1],2 µg/mL
same,MIC90,[1],2 µg/mL
same,Maximum (MIC),[1],2 µg/mL
same,Minimum (MIC),[1]; [8],1 µg/mL
same,MIC50,[2],2 µg/mL
same,MIC90,[2],2 µg/mL
same,Maximum (MIC),[2],4 µg/mL
same,Minimum (MIC),[2]; [8],1 µg/mL
ε-polylysine [εPL],MIC50,[1],8 µg/mL
same,MIC90,[1],8 µg/mL
same,Maximum (MIC),[1],8 µg/mL
same,Minimum (MIC),[1]; [8],4 µg/mL
same,MIC50,[2],4 µg/mL
same,MIC90,[2],8 µg/mL
same,Maximum (MIC),[2],8 µg/mL
same,Minimum (MIC),[2]; [8],4 µg/mL
same,MICs range,[2]; all 50 isolates tested (MSSA and MRSA),4 to 8 µg/mL
same,effect on the colony counts,MRSA strain K-950,no effect
same,Colony Counts,"MRSA strain K-950; 0.25X MIC (1 μg/ml), 0 Hours",4.65 × 10^5 CFU/ml
same,Colony Counts,"MRSA strain K-950; 0.25X MIC (1 μg/ml), 1 Hour",3.90 × 10^5 CFU/ml
same,Colony Counts,"MRSA strain K-950; 0.25X MIC (1 μg/ml), 2 Hours",9.75 × 10^5 CFU/ml
same,Colony Counts,"MRSA strain K-950; 0.25X MIC (1 μg/ml), 4 Hours",2.95 × 10^7 CFU/ml
same,Colony Counts,"MRSA strain K-950; 0.25X MIC (1 μg/ml), 6 Hours",5.90 × 10^6 CFU/ml
same,Colony Counts,"MRSA strain K-950; 0.25X MIC (1 μg/ml), 8 Hours",1.19 × 10^7 CFU/ml
same,Colony Counts,"MRSA strain K-950; 0.25X MIC (1 μg/ml), 24 Hours",1.19 × 10^8 CFU/ml
same,Colony Counts,"MRSA strain K-950; 1X MIC (4 μg/ml), 4 Hours",6.30 × 10^4 CFU/ml
same,Colony Counts,"MRSA strain K-950; 4X MIC (16 μg/ml), 0 Hours",4.55 × 10^5 CFU/ml
same,Colony Counts,"MRSA strain K-950; 4X MIC (16 μg/ml), 1 Hour",4.25 × 10^5 CFU/ml
same,Colony Counts,"MRSA strain K-950; 4X MIC (16 μg/ml), 2 Hours",8.45 × 10^4 CFU/ml
same,Colony Counts,"MRSA strain K-950; 4X MIC (16 μg/ml), 4 Hours",1.92 × 10^3 CFU/ml
same,Colony Counts,"MRSA strain K-950; 4X MIC (16 μg/ml), 6 Hours",2.10 × 10^2 CFU/ml
same,Colony Counts,"MRSA strain K-950; 4X MIC (16 μg/ml), 8 Hours",3.00 × 10^1 CFU/ml
same,Colony Counts,"MRSA strain K-950; 4X MIC (16 μg/ml), 24 Hours",7.10 × 10^3 CFU/ml
same,decrease of MRSA colony counts,MRSA strain K-950; 4 times the MIC (16.0 μg/ml),more than 3 logs
same,MIC of the tested strain,MRSA strain K-950; MRSA strain K-950,4.0 µg/mL
same,decrease of MRSA colony counts,MRSA strain K-950; at MIC,2.4 Log
same,action against MRSA,"MRSA strain K-950; time-kill study, MRSA K-950",bactericidal
same,slit lamp microscopic examination and histologic findings,"[3]; rabbits, 50, 150 and 500 μg/mL, eight doses in seven hours",did not reveal any abnormality
same,ocular tolerability,"[3]; rabbits, one drop in the eye eight times during a seven-hour period, concentrations up to 500 μg/mL in PBS pH 7.3",well tolerated
